What all share (test): NCI-60 cell line screen, 48 h
In assay [1] the test system is UACC-257 melanoma.
In assay [2] the test system is KM12 colon.
The subject of assay [3] is UO-31 renal.
Assay [4] deals with OVCAR-4 ovarian.
The test system of assay [5] is UACC-62 melanoma.
The subject of assay [6] is SW-620 colon.
Assay [7] deals with CAKI-1 renal.
Assay [8] concerns HL-60(TB) leukemia.
Assay [9] concerns K-562 leukemia.
Assay [10] has as its system A498 renal.
For assay [11], the system named is DU-145 prostate.
Assay [12] relates to PC-3 prostate.
Assay [13] deals with HS 578T breast.

The source of these data is PubChem BioAssay (NCI).

Structures are written as SMILES.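 How tested: cells in 96-well plates exposed to compound for 48 hours at five concentrations. TGI: concentration producing complete growth inhibition.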

`O=c1[nH]c2cc([N+](=O)[O-])ccc2nc1/C(=N/Nc1ccccc1)C(O)c1ccc(C(O)/C(=N\Nc2ccccc2)c2cnc3cc([N+](=O)[O-])ccc3n2)cc1` (stereo unspecified): the TGI in assay [1], in assay [2], in assay [3], in assay [4], in assay [5] and in assay [6] was above 100 µM each time. The TGI in assay [7], in [8], in assay [9] and in [10] was above 100 µM each time.
Regarding `O=C(Nc1cc2c(=O)oc3ccccc3c2oc1=O)c1cccnc1`, the TGI in assay [1], in assay [2], in assay [3], in assay [4], in [5] and in assay [6] was above 100 µM in each case. Besides, the TGI in assay [7], in assay [8], in assay [11], in assay [12] and in assay [9] was above 100 µM in each case.
As for `C/C(=N\Nc1nc2ccccc2n1C)c1cnccn1`, the TGI in assay [1] is above 25 µM; in assay [2], above 33.2 µM; in [3] it was above 100 µM; in assay [4], above 100 µM; in assay [6], above 100 µM; in assay [7], above 100 µM. The TGI in [8] is 0.058 µM; in assay [11], above 100 µM; in [12], above 100 µM; in assay [9] it was above 100 µM; in [10], above 63.3 µM.
Take `CS(=O)(=O)c1c(N)c2nc(Cl)cn2c2nc3ccccc3nc12`: the TGI in assay [1], in [2], in [3], in assay [4], in assay [5] and in assay [6] was above 100 µM in each case. The TGI in assay [7] and in assay [9] was above 100 µM each time.
`CCN(CC)C(=S)SS(=O)(=O)c1ccc(Cl)cc1`: the TGI in assay [1] was 58.8 µM; in [2], 24.4 µM; in assay [13], above 100 µM; in assay [3] it was 35.7 µM; in assay [4], above 100 µM; in [5], above 100 µM. Moreover, the TGI is 37 µM in assay [6]; 43.5 µM in assay [7]; 82 µM in [11]; 63.3 µM in assay [9]; above 100 µM in assay [10].
With `CC(=O)c1ccc2c(ccc(=O)n2C)c1`, the TGI in [2], in [4], in [5], in assay [6], in assay [7] and in assay [8] was above 100 µM in each case. The TGI in [9] and in [10] was above 100 µM each time.
As for `CCN1C[C@]2(C)CC[C@H](OC)C34C1C([C@H](OC(C)=O)[C@@H]32)[C@@]1(OC)C[C@H](OC)[C@H]2C[C@@H]4[C@@H]1[C@H]2O`, the TGI in assay [1], in [2], in [3], in assay [4], in assay [5] and in [6] was above 100 µM each time. For the same compound, the TGI in [7], in assay [8], in assay [9] and in assay [10] was above 100 µM in each case.
For `CCN(CC)CCN1C(=O)c2c(c(-c3ccccc3)c3ccccc3c2-c2ccccc2)C1=O`, the TGI in [1], in assay [2], in assay [13], in [4], in [5] and in [6] was above 100 µM each time. For the same compound, the TGI in [7], in assay [8], in assay [12], in [9] and in assay [10] was above 100 µM each time.
As to `CCOC(=O)Cc1csc2[n+]1C(=O)/C(=C\c1cccc(Cl)c1Cl)S2`, the TGI in assay [1] was determined as 90.1 µM; in assay [2], 33.5 µM; in assay [13], 89.7 µM; in [3] it was 27.1 µM; in assay [4], 42.3 µM; in assay [5] it was 21.8 µM. The TGI in assay [6] was 56.6 µM; in assay [7], 48.7 µM; in assay [8], 51.5 µM; in [11], 46.3 µM; in assay [12], 37.7 µM.
For `CN(CCO)c1nc(N)cc(=O)[nH]1`, the TGI in [1], in [2], in assay [3], in [5], in assay [6] and in assay [7] was above 100 µM throughout. Further, the TGI in assay [8] and in assay [9] was above 100 µM in each case.
In the case of `CCN(CC)CCCC(C)Nc1ccnc2ccc3nn(C)nc3c12` (stereo unspecified), the TGI in assay [1] is above 100 µM; in assay [2], above 100 µM; in assay [3], above 100 µM; in assay [5], above 100 µM; in [6] it was 75.7 µM; in assay [7], above 100 µM. The TGI in assay [8] is above 100 µM; in [9] it was 86.3 µM; in assay [10], above 100 µM.
With `COC(C(=O)C(O)C(C)O)C1CC2C=C3C=C(OC4CC(OC5CC(O)C(OC)C(C)O5)C(OC(C)=O)C(C)O4)C(C)C(=O)C3=C(O)C2=C(O)C1OC1CC(OC2CC(OC3CC(C)(O)C(OC(=O)C(C)C)C(C)O3)C(O)C(C)O2)C(O)C(C)O1` (stereo unspecified), the TGI in assay [1] is below 0.01 µM; in assay [2], below 0.01 µM; in assay [13] it was below 0.01 µM; in assay [4] it was above 100 µM; in [5], below 0.01 µM; in assay [7] it was above 100 µM. The TGI in assay [8], in assay [11], in [9] and in assay [10] was below 0.01 µM throughout.
For the compound `CCOC(=O)c1nc2ccccc2nc1Nc1ccc(OC)c(OC)c1`, the TGI in assay [2], in [13], in assay [3], in assay [4], in assay [5] and in [7] was above 100 µM in each case. For the same compound, the TGI in [8], in [11] and in [9] was above 100 µM throughout.
Take `COc1cc(NC(C)=O)ccc1C(=O)NN1C(=O)C(Cl)C1c1ccco1` (stereo unspecified): the TGI in [2], in [3], in assay [4], in assay [5], in assay [6] and in assay [7] was above 100 µM each time. In addition, the TGI in [8], in assay [11], in assay [12], in assay [9] and in [10] was above 100 µM throughout.
As to `O=C(Cc1csc(N=Nc2c(O)[nH]c3ccccc23)n1)Nc1ccccc1`, the TGI in assay [1] is 87.7 µM; in [2], above 100 µM; in assay [3] it was 93.3 µM; in [4], above 100 µM; in assay [6] it was above 100 µM; in assay [7] it was 53.4 µM. The TGI was 94 µM in assay [8], 91.5 µM in assay [11] and above 100 µM in assay [10].
As for `Cc1c2c(n(CCc3ccccc3)c1C)N(C)N=C(C#N)S2(=O)=O`, the TGI in [1], in assay [2], in assay [3], in assay [4], in assay [5] and in assay [6] was above 100 µM throughout. Also, the TGI in assay [7], in assay [11] and in assay [12] was above 100 µM throughout.
`O=C(CCCNc1nc(-c2ccccc2)cs1)c1cccs1`: the TGI in [1], in [2], in assay [13], in assay [3], in assay [4] and in assay [5] was above 100 µM throughout. In addition, the TGI in [6], in assay [7], in assay [12] and in assay [9] was above 100 µM each time.
Regarding `C=C1C(=O)OC2/C=C(/C)C3CC(O)C(C)(CC(OC(=O)/C(C)=C/C)C12)O3` (stereo unspecified), the TGI was 17.6 µM in [1]; 11.3 µM in assay [2]; 18.3 µM in assay [3]; 20.6 µM in assay [4]; 5.22 µM in assay [5]; 3.46 µM in [6]. The TGI in assay [7] was 4.86 µM; in assay [8], 18.3 µM; in assay [9] it was above 28.8 µM; in assay [10] it was 23.2 µM.
With `C/C1=C/C(C)CC(C)OC(=O)C(C)NC(=O)C(Cc2ccc(O)c(I)c2)N(C)C(=O)C(C)NC(=O)C(C)C1` (stereo unspecified), the TGI in assay [1] was 8.36 µM; in assay [2] it was 24.3 µM; in [13] it was below 0.0392 µM; in assay [5], 15 µM; in [6] it was above 100 µM; in [8], below 0.01 µM. The TGI in [11] is above 58.1 µM; in [9], above 40.8 µM; in [10], below 0.0137 µM.
As for `CCOC(=O)c1c(C)cc(=O)n2c1[nH]c1ccccc12`, the TGI was above 100 µM in [1]; above 100 µM in assay [3]; above 100 µM in [5]; above 100 µM in [6]; 50.9 µM in assay [7]; above 100 µM in assay [8]. Besides, the TGI in assay [11], in assay [12], in assay [9] and in assay [10] was above 100 µM each time.
`O=C(O)CS`: the TGI in [1], in assay [2], in assay [3], in assay [4], in [5] and in [6] was above 100 µM each time. Further, the TGI in assay [7], in [8] and in assay [9] was above 100 µM throughout.
For `O=C(NNC(c1ccccc1)C(F)(F)F)c1ccncc1` (stereo unspecified), the TGI in assay [1], in assay [2], in assay [4], in assay [6], in assay [7] and in assay [8] was above 100 µM throughout. In addition, the TGI in assay [11], in [12] and in [9] was above 100 µM in each case.
In the case of `CC(C)CCC[C@@H](C)C1CCC2[C@@H]3CC=C4C[C@@H](C(=O)NCC[N+](C)(C)CCCS(=O)(=O)[O-])CC[C@]4(C)C3CC[C@@]21C` (stereo partly specified), the TGI in assay [1] amounted to 34.8 µM; in assay [2], 31.5 µM; in assay [3], 34.3 µM; in [4] it was 35.9 µM; in assay [5], 34.7 µM; in assay [6], 30.7 µM. Moreover, the figures for the TGI in assay [7], in [8] and in assay [9] were 27.2 µM, 28.3 µM and 29.9 µM, respectively.
As to `c1ccc(C2=NOC3(c4ccccc4)SC4CCCCC4CN23)cc1` (stereo unspecified), the TGI in assay [1] was above 100 µM; in [2], 88.9 µM; in [3], above 100 µM; in [4] it was above 100 µM; in assay [5] it was 83.1 µM; in [6], above 100 µM. Besides, the TGI in assay [7] was 63.8 µM; in assay [8] it was above 100 µM; in assay [9], above 100 µM; in assay [10] it was above 100 µM.
For the compound `Cc1ccc(N=N/C(=N/NC(=O)c2cc(Cl)ccc2C(=O)c2ccccc2)c2ccc(N(CCC#N)CCC#N)cc2C)cc1`, the TGI in [1] was 39.4 µM; in [2], above 100 µM; in [13] it was above 100 µM; in assay [3], above 100 µM; in assay [4], 82.4 µM; in assay [5], 36.2 µM. Further, the TGI in assay [6] is above 100 µM; in assay [7], 79.3 µM; in [11], 51.8 µM; in assay [12], 47.2 µM; in assay [9], above 100 µM.
For `CC(C)(C)NC(=O)NC12CC3CC(CC(F)(C3)C1)C2`, the TGI in assay [1], in assay [2], in assay [3], in assay [5], in assay [6] and in assay [8] was above 100 µM throughout. Further, the TGI in [9] and in [10] was above 100 µM throughout.
